Some results are limits rather than exact numbers.

The record followed here is patent US10029986B2, “Alkynyl pyridine-substituted amide compound and pesticide” (NISSAN CHEMICAL INDUSTRIES, LTD., priority 2014, dated 2018).

The test system of data set [1] is Colletotrichum lagenarium (Synonym: Colletotrichum orbiculare). Description: Test on the preventive effect against cucumber anthracnose. It counts as in vivo. To be noted: 168 h, test solution A 500 ppm, 5 ml per pot sprayed, 2 days inoculation chamber then 7 days at 23° C. The method, then: Compounds of the present invention were dissolved in a solvent for emulsion (a mixture of Sorpol (registered trademark) 3005XL (manufactured by Toho Chemical Industry Co., Ltd.): N-methylpyrrolidone: Solvesso (registered trademark) 200 (manufactured by ExxonMobil Chemical) in a ratio of 1:5:2) to prepare 20 wt % emulsifiable concentrates. Then, distilled water was added to dilute the emulsifiable concentrates to the prescribed concentration (500 ppm), and the obtained solutions were used in the following the Test Examples 1 to 8. Cucumber (varieties: Sagami Hanjiro) was seeded in 90 cm^3 plastic pot, and at the cotyledon stage, 5 ml per pot of test solution A of the compounds of the present invention was sprayed. One day later, a suspension of conidium of Colletotrichum lagenarium (Synonym: Colletotrichum orbiculare) was sprayed, and the pot was left for 2 days in the inoculation chamber at 25° C. under humidity of 100% RH. Thereafter, the pot was placed in an air-conditioned greenhouse (23° C.) and left at the same temperature for 7 days. Thereafter, the proportion of the formed lesion in the inoculated leaves were measured to calculate the control value in accordance with the same formula as in Test Example 1. The test was carried out in duplicate.

Take `O=C(NCC(F)(F)c1ncc(C#CC2CC2)cc1Cl)c1cccnc1C(F)F` [3-003, N-[2-[3-chloro-5-(cyclopropylethynyl)pyridin-2-yl]-2,2-difluoroethyl]-2-(difluoromethyl)nicotinamide]: the melting point lay in the range of 116 to 118 °C. This compound came in with a pest or weed control at 500 µg/mL in data set [1] of at least 70%.
Compound `CSC(CNC(=O)c1cn(C)nc1C(F)F)c1ncc(C#CC2CC2)cc1Cl` (stereo not shown) [8-020, N-[2-[3-chloro-5-(cyclopropylethynyl)pyridin-2-yl]-2-(methylthio)ethyl]-3-difluoromethyl-1-methyl-1H-pyrazole-4-carboxamide] returned a pest or weed control at 500 µg/mL in data set [1] of at least 70%.
Same read-out and setting: the result for `CC(Cc1ncc(C#Cc2ccccc2)cc1Cl)NC(=O)c1cn(C)nc1C(F)F` (stereo not shown) [8-027] reads at least 70%.
`Cn1cc(C(=O)NCC(F)(F)c2ncc(C#CC3CC3)cc2Cl)c(C(F)F)n1` [8-003] returned a melting point of 100 to 101 °C. This compound also displayed a pest or weed control at 500 µg/mL in data set [1] of at least 70%.
`O=C(NCC(c1ncc(C#CC2CC2)cc1Cl)C1CC1)c1cccnc1C(F)F` (stereo not shown) [3-008] yielded a pest or weed control at 500 µg/mL in data set [1] of at least 70%.
In turn, `O=C(NCCc1ncc(C#CC2CC2)cc1Cl)c1ccccc1C(F)(F)F` [1-002] showed a melting point of 105 to 108 °C. In data set [1], this compound yielded a pest or weed control at 500 µg/mL of at least 70%.
`Cn1cc(C(=O)NCC(c2ncc(C#CC3CC3)cc2Cl)C2CC2)c(C(F)F)n1` (stereo not shown) [8-009]: the pest or weed control at 500 µg/mL in data set [1] was at least 70%.
In data set [1], `CSC(CNC(=O)c1cccnc1C(F)F)c1ncc(C#CC2CC2)cc1Cl` (stereo not shown) [3-020] showed a pest or weed control at 500 µg/mL of at least 70%.
Compound `O=C(NCCc1ncc(C#CC2CC2)cc1Cl)c1cccnc1C(F)F` [3-001, N-[2-[3-chloro-5-(cyclopropylethynyl)pyridin-2-yl]ethyl]-2-(difluoromethyl)nicotinamide] came in with a melting point of 114 to 117 °C.
`Cc1nc(C(F)F)c(C(=O)NCC(C)c2ncc(C#CC3CC3)cc2Cl)s1` (stereo not shown) [9-002] had a pest or weed control at 500 µg/mL in data set [1] of at least 70%.
In turn, `CC(C)(C)C#Cc1cnc(CCNC(=O)c2cccnc2C(F)F)c(Cl)c1` [3-002] yielded a melting point of 144 to 146 °C. Also, in data set [1], the pest or weed control at 500 µg/mL was at least 70%.
Consider `CC(CNC(=O)c1cccnc1C(F)F)c1ncc(C#CC2CC2)cc1Cl` (stereo not shown) [3-006], for which, in data set [1], the pest or weed control at 500 µg/mL was at least 70%.
`O=C(NCC(F)(F)c1ncc(C#CC2CC2)cc1Cl)c1ccccc1C(F)(F)F` [1-005]: the melting point lay in the range of 137 to 139 °C. The pest or weed control at 500 µg/mL in data set [1] is at least 70%.
For `CC#Cc1cnc(CCNC(=O)c2ccccc2C(F)(F)F)c(Cl)c1` [1-001, N-[2-[3-chloro-5-(1-propynyl)pyridin-2-yl]ethyl]-2-(trifluoromethyl)benzamide] the same measures were 100 to 103 °C and at least 70%.
`Cn1cc(C(=O)NCCc2ncc(C#CC3CC3)cc2Cl)c(C(F)F)n1` [8-001] came in with a melting point of 96 to 98 °C.
Same read-out and setting: the result for `COC(c1ncc(C#CC(C)(C)C)cc1Cl)C(C)NC(=O)c1ccccc1C(F)(F)F` (stereo not shown) [1-025] reads 36 to 38 °C.
Take `C=C(CNC(=O)c1ccccc1C(F)(F)F)c1ncc(C#CC)cc1Cl` [1-012, N-[2-[3-chloro-5-(1-propynyl)pyridin-2-yl]-2-propenyl]-2-(trifluoromethyl)benzamide]: the melting point lay in the range of 85 to 90 °C.
`CC(Cc1ncc(C#CC2CC2)cc1Cl)NC(=O)c1cn(C)nc1C(F)F` (stereo not shown) [8-024, N-[2-[3-chloro-5-(cyclopropylethynyl)pyridin-2-yl]-1-methylethyl]-3-difluoromethyl-1-methyl-1H-pyrazole-4-carboxamide] showed a melting point of 127 to 130 °C. For the same compound, the pest or weed control at 500 µg/mL in data set [1] is at least 70%.
For `CC(C)(C)C#Cc1cnc(CCNC(=O)c2ccccc2C(F)(F)F)c(Cl)c1` [1-003, N-[2-[3-chloro-5-(3,3-dimethyl-1-butynyl)pyridin-2-yl]ethyl]-2-(trifluoromethyl)benzamide], the melting point is 90 to 92 °C.
The same measure, in the same setting: the result for `C=C(CNC(=O)c1cn(C)nc1C(F)F)c1ncc(C#CC2CC2)cc1Cl` [8-011, N-[2-[3-chloro-5-(cyclopropylethynyl)pyridin-2-yl]-2-propenyl]-3-difluoromethyl-1-methyl-1H-pyrazole-4-carboxamide] reads 66 to 70 °C.
On the same count and under the same terms, the result for `COC(CNC(=O)c1cn(C)nc1C(F)F)c1ncc(C#CC2CC2)cc1Cl` (stereo not shown) [8-019] reads 110 to 111 °C.

For orientation: pest or weed control means how far the test organism was held down. As a reminder, the melting point is the temperature, or range, at which the solid turns liquid.
